Laboratory results as given in PubChem BioAssay (NCI).
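Protocol summary: plate cells (96-well), add compound at 5 concentrations, incubate 48 h, interpolate endpoints linearly. GI50: concentration for 50% inhibition of growth. At the TGI there is no net growth.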

How the values were obtained:
Assay in all cases: NCI tumour cell line growth inhibition, 48 h
[1] = system: CAKI-1 renal
[2] = system: M14 melanoma
[3] = system: RPMI-8226 leukemia
[4] = system: OVCAR-8 ovarian
[5] = system: HCC-2998 colon
[6] = system: HCT-15 colon
[7] = system: SK-MEL-28 melanoma
[8] = system: HL-60(TB) leukemia
[9] = system: A498 renal
[10] = system: UO-31 renal
[11] = system: NCI-H460 lung
[12] = system: SF-268 CNS
[13] = system: HCT-116 colon
[14] = system: HT29 colon
[15] = system: PC-3 prostate
[16] = system: SK-MEL-5 melanoma
[17] = system: COLO 205 colon
[18] = system: SK-OV-3 ovarian
[19] = system: SF-539 CNS
[20] = system: SNB-19 CNS
[21] = system: HOP-92 NSCLC
[22] = system: EKVX NSCLC
[23] = system: UACC-257 melanoma
[24] = system: BT-549 breast
[25] = system: DU-145 prostate
[26] = system: OVCAR-5 ovarian
[27] = system: NCI-H522 lung
[28] = system: MDA-MB-468 breast
[29] = system: CCRF-CEM leukemia
[30] = system: NCI-H226 lung
[31] = system: OVCAR-3 ovarian
[32] = system: MDA-MB-435
[33] = system: SW-620 colon
[34] = system: SN12C renal
[35] = system: MCF7 breast
[36] = system: NCI/ADR-RES ovarian
[37] = system: NCI-H23 lung
[38] = system: SF-295 CNS
[39] = system: SR leukemia
[40] = system: TK-10 renal
[41] = system: A549 NSCLC
[42] = system: SNB-75 CNS
[43] = system: KM12 colon
[44] = system: HOP-62 NSCLC
[45] = system: MDA-MB-231 breast
[46] = system: ACHN renal
[47] = system: K-562 leukemia
[48] = system: T-47D breast
[49] = system: MOLT-4 leukemia
[50] = system: SK-MEL-2 melanoma
[51] = system: IGROV1 ovarian
[52] = system: U251 CNS
[53] = system: MALME-3M melanoma
[54] = system: LOX IMVI melanoma
[55] = system: 786-0 renal
[56] = system: UACC-62 melanoma
[57] = system: OVCAR-4 ovarian

Structure (SMILES): COc1cc(/C=C/C(=O)c2cc(OC)c(OC)c(OC)c2)ccc1Oc1nc(Nc2ccc(F)cc2)nc(N(C)C)n1
- GI50 [1]: 1.98 µM
- TGI [1]: 6.67 µM
- GI50 [2]: 2.83 µM
- TGI [2]: 10.8 µM
- GI50 [3]: 0.751 µM
- TGI [3]: 5.21 µM
- GI50 [4]: 1.55 µM
- TGI [4]: 6.57 µM
- GI50 [5]: 2.03 µM
- TGI [5]: 4.16 µM
- GI50 [6]: 1.18 µM
- TGI [6]: 2.75 µM
- GI50 [7]: 1.8 µM
- TGI [7]: 4.07 µM
- GI50 [8]: 2.21 µM
- TGI [8]: 8.24 µM
- GI50 [9]: 3.99 µM
- TGI [9]: 15.2 µM
- GI50 [10]: 1.12 µM
- TGI [10]: 2.36 µM
- GI50 [11]: 1.45 µM
- TGI [11]: 3.3 µM
- GI50 [12]: 3.43 µM
- TGI [12]: > 100 µM
- GI50 [13]: 1.4 µM
- TGI [13]: 3.18 µM
- GI50 [14]: 1.54 µM
- TGI [14]: 3.55 µM
- GI50 [15]: 2.77 µM
- TGI [15]: 30.9 µM
- GI50 [16]: 2.16 µM
- TGI [16]: 4.83 µM
- GI50 [17]: 4.45 µM
- TGI [17]: 16.8 µM
- GI50 [18]: 8.42 µM
- TGI [18]: 29.9 µM
- GI50 [19]: 1.64 µM
- TGI [19]: 3.09 µM
- GI50 [20]: 1.86 µM
- TGI [20]: 4.58 µM
- GI50 [21]: 1.67 µM
- TGI [21]: 6.72 µM
- GI50 [22]: 2.15 µM
- TGI [22]: 9.12 µM
- GI50 [23]: 2.83 µM
- TGI [23]: 12.6 µM
- GI50 [24]: 1.56 µM
- TGI [24]: 3.2 µM
- GI50 [25]: 3.99 µM
- TGI [25]: 18.7 µM
- GI50 [26]: 1.48 µM
- TGI [26]: 3.89 µM
- GI50 [27]: 1.47 µM
- TGI [27]: 3.24 µM
- GI50 [28]: 1.35 µM
- TGI [28]: 3.51 µM
- GI50 [29]: 2.19 µM
- TGI [29]: > 100 µM
- GI50 [30]: 1.44 µM
- TGI [30]: 3.23 µM
- GI50 [31]: 2.57 µM
- TGI [31]: > 100 µM
- GI50 [32]: 1.63 µM
- TGI [32]: 3.54 µM
- GI50 [33]: 1.55 µM
- TGI [33]: 3.27 µM
- GI50 [34]: 1.23 µM
- TGI [34]: 2.73 µM
- GI50 [35]: 1.06 µM
- TGI [35]: 4.07 µM
- GI50 [36]: 1.42 µM
- TGI [36]: 3.39 µM
- GI50 [37]: 1.63 µM
- TGI [37]: 3.63 µM
- GI50 [38]: 1.98 µM
- TGI [38]: 5.49 µM
- GI50 [39]: 0.7 µM
- TGI [39]: > 100 µM
- GI50 [40]: 2.53 µM
- TGI [40]: 7.3 µM
- GI50 [41]: 4.49 µM
- TGI [41]: 19.2 µM
- GI50 [42]: 2.54 µM
- TGI [42]: 21.1 µM
- GI50 [43]: 3.63 µM
- TGI [43]: 88.6 µM
- GI50 [44]: 1.83 µM
- TGI [44]: 3.88 µM
- GI50 [45]: 1.48 µM
- TGI [45]: 3.58 µM
- GI50 [46]: 2.3 µM
- TGI [46]: 7.48 µM
- GI50 [47]: 1.4 µM
- TGI [47]: > 100 µM
- GI50 [48]: 1.87 µM
- TGI [48]: 56.1 µM
- GI50 [49]: 0.472 µM
- TGI [49]: > 100 µM
- GI50 [50]: 1.69 µM
- TGI [50]: 3.79 µM
- GI50 [51]: 1.93 µM
- TGI [51]: 4.49 µM
- GI50 [52]: 0.503 µM
- TGI [52]: 2.43 µM
- GI50 [53]: 1.75 µM
- TGI [53]: 4.21 µM
- GI50 [54]: 0.478 µM
- TGI [54]: 1.69 µM
- GI50 [55]: 1.45 µM
- TGI [55]: 3.23 µM
- GI50 [56]: 1.41 µM
- TGI [56]: 3 µM
- GI50 [57]: 2.07 µM
- TGI [57]: 10.6 µM
